Reference: patent publication US20250248979A1, “NOVEL GPX4 INHIBITORS AND USES THEREOF” (THE TRUSTEES OF COLUMBIA UNIVERSITY IN THE CITY OF NEW YORK, priority 2022, published 2025)
Entries after “also recorded” stand apart in the source; their conditions may differ. Where two headings read alike, the source gives them in different places.

What was measured:
[1] = tested on: HT-1080 cells; test: Cellular dose response assay, HT-1080 with and without Fer-1; type: cell-based, human; details: for ferroptosis induction / potency in HT-1080 cells, result in words: RSL3 as control; for Selectivity: ferroptosis selectivity
Excerpt: HT-1080 (human [Homo sapiens] […] fibrosarcoma), A-673 (human [Homo sapiens] […] Ewing's sarcoma), and SK-HEP-1 (human [Homo sapiens] […] hepatic adenocarcinoma), cells were obtained from ATCC. Huh7 (human [Homo sapiens] […] hepatocellular carcinoma), HLF (human [Homo sapiens] […] hepatocellular carcinoma), HepG2 (human [Homo sapiens] […] hepatocellular carcinoma), cells were obtained from the Cancer Cell Bank at Columbia University Irving Medical Center. HT-1080, A-673, Huh-7, and HLF cells were grown in Dulbecco's Modified Eagle Medium (DMEM) supplemented with 10% heat inactivated fetal bovine serum (HI-FBS), 1% non-essential amino acids, and 1% penicillin streptomycin. HepG2 and SK-HEP-1 cells were grown in Eagle's Minimum Essential Medium (EMEM) supplemented with 10% HI-FBS, and 1% penicillin-streptomycin. All cells were cultured at 37° C. and 5% CO2.
HT-1080, HepG2, Huh7, HLF, and SK-HEP-1 cells were seeded into opaque white 384-well plates at 1500 cells per well then incubated at 37° C. with 5% CO2 overnight. The next day, compounds of interest were dissolved in DMSO and 12-point 2-fold dilution series were prepared with and without Fer-1. Cells were treated in triplicate (final DMSO concentration of 0.4% in all wells, including DMSO-only control wells) and incubated for a further 48 hours at 37° C. and 5% CO2. Cell viability was evaluated using CellTiter-Glo (Promega G7573) and luminescence was recorded on a Victor 5 plate reader. Data were analyzed in GraphPad Prism 9 and error bars represent standard deviation values for three technical replicates in a representative experiment.

[2] = target: T1, GPX4 (Homo sapiens, UniProt P36969); test: GPX4 activity assay in cell lysates (NADPH-coupled); type: biochemical; design: endogenous in cells; host or cells: A-673 cell lysate
T1 sequence (P36969 1-170 isoform P36969-2): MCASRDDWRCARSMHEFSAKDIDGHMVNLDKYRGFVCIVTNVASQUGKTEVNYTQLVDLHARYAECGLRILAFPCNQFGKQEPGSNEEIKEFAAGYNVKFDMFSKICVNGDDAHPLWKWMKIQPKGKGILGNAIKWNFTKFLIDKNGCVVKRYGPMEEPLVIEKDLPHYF
Method in brief: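 Native GPX4 in lysates of A-673 cells grown with 20 nM sodium selenite; lysate preincubated with compound 45 min at 37 °C in pH 8.0 buffer with 3 mM GSH, 0.5 mM NADPH and glutathione reductase. Reaction started with phosphatidylcholine hydroperoxide; NADPH consumption followed at 340 nm over 25 min; triplicates.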

[3] = HT1080 + Fer-1, read-out: IC50 (uM) HT1080 + Fer-1
[4] = HT1080, without Fer-1, read-out: IC50 (uM) HT1080
[5] = with Fer-1, Table 10, read-out: IC50 (μM) HT1080 + Fer-1
[6] = without Fer-1, Table 10, read-out: IC50 (μM) HT1080

Structure (SMILES)	IC50 [1, 3] [µM]	IC50 [1, 4] [µM]	Selectivity ([1]; HT1080 + Fer-1 vs HT1080)	GPX4% inhibition at 2.5 μM ([2]; 2.5 μM) [%]	Selectivity ([1]; IC50 with Fer-1 / IC50)	IC50 [1, 5] [µM]	IC50 [1, 6] [µM]	GPX4% inhibition at 2.5 μM ([2]; 2.5 μM, 4th generation) [%]	also measured
Cn1nc(C(=O)NC(C)(C)COC(=O)CCl)c2ccc(-c3ccc(OC(C)(C)C)cc3)cc21 [QW-715]	24.1	2.6	9.3	95.3 ± 7.6	–	–	–	–	ferroptosis induction / potency in HT-1080 cells, result in words [1]: more potent compared to RSL3; GPX4 inhibition ([2]; 2.5 μM): completely inhibited GPX4
CSc1ccc(-c2ccc3c(C(=O)NC(C)(C)COC(=O)CCl)nn(Cc4ccc(Cl)cc4)c3c2)cc1Cl [QW-847]	–	–	–	–	9.6	98.4	10.2	88.5 ± 16.1	–
COc1ccc(-c2ccc3c(C(=O)NC(C)(C)COC(=O)CCl)nn(Cc4ccc(C(F)(F)F)cc4)c3c2)cc1Cl [QW-873]	–	–	–	–	3.4	26.8	8	45.6 ± 39.7	–
COc1ccc(-c2ccc3c(C(=O)NC(C)(C)COC(=O)CCl)nn(Cc4cc(Cl)cc(Cl)c4)c3c2)cc1Cl [QW-851]	–	–	–	–	>920	> 40	–	114.9 ± 23.5	fold change in potency in the cell viability assay, QW-851 vs QW-446 ([1]; benzyl vs methyl on the indazole): 10 fold; IC50 ([1]; read-out: IC50 against HT1080 cell lines): 0.0435 µM; GPX4 inhibitory activity, result in words [2]: greater GPX4 inhibitory activity than QW-446 at 2.5 μM concentration
Cn1nc(C(=O)NC(C)(C)C(C)(C)OC(=O)CCl)c2ccc(-c3ccc(C(F)(F)F)c(Cl)c3)cc21 [QW-786]	5.8	2.4	2.6	31.7 ± 19.5	–	–	–	–	–
COc1ccc(-c2ccc3c(-n4cc(C(C)(C)CNC(=O)CCl)nn4)nn(C)c3c2)cc1Cl [QW-792]	5.8	1.1	5.3	−19.6 ± 18.2	–	–	–	–	–
COc1c(Cl)cc(-c2ccc3c(C(=O)NC(C)(C)COC(=O)CCl)nn(C)c3c2)cc1Cl [QW-711]	31.7	1.4	22.6	98.4 ± 17.6	–	–	–	–	ferroptosis induction / potency in HT-1080 cells, result in words [1]: less potent compared to RSL3; GPX4 inhibitory activity, result in words [2]: further increase the inhibitory activity
COc1ccc(-c2ccc3c(C(=O)NC(C)(C)C(C)(C)OC(=O)CCl)nn(C)c3c2)cc1Br [QW-766]	2.5	1.2	2.1	−31.1 ± 29.6	–	–	–	–	–
COc1c(F)cc(-c2ccc3c(C(=O)NC(C)(C)C(C)(C)OC(=O)CCl)nn(C)c3c2)cc1Cl [QW-796]	2.6	2.4	1.1	4.6 ± 14.4	–	–	–	–	–
CC(C)(COC(=O)CCl)NC(=O)c1nn(Cc2ccc(Cl)cc2)c2cc(-c3ccc(N4CCOCC4)c(Cl)c3)ccc12 [QW-824]	–	–	–	–	>220	> 40	0.18	90.5 ± 7.4	ferroptosis induction / potency in HT-1080 cells, result in words [1]: good potency in cell and selectivity to GPX4; also recorded: outstanding cytotoxicity with sub-molar scale; GPX4 inhibitory activity, result in words [2]: greater GPX4 inhibitory activity than QW-446
CC(C)(COC(=O)CCl)NC(=O)c1nn(Cc2ccc(-c3ccc(N4CCOCC4)c(Cl)c3)cc2)c2cc(-c3ccc(N4CCOCC4)c(Cl)c3)ccc12 [QW-883]	–	–	–	–	371.4	20.8	–	41.1 ± 40.9	IC50 ([1]; without Fer-1, Table 10, read-out: IC50 HT1080): 0.0564 µM
COc1ccc(-c2cc(Cl)cc(Cn3nc(C(=O)NC(C)(C)COC(=O)CCl)c4ccc(-c5ccc(OC)c(Cl)c5)cc43)c2)cc1Cl [QW-853]	–	–	–	–	56.8	21	0.37	45.5 ± 34.3	–
